{
  "source": "paper PMC8596843",
  "about": "“Platinum Cyclooctadiene Complexes with Activity against Gram‐positive Bacteria” (Chemmedchem, 2021)",
  "key": {"[1]": {"tested_on": "Enterococcus faecium Clinical Isolate, VRE (VanA)", "assay": "Antibacterial MIC assay, Gram-positive panel", "format": "cell-based", "conditions": "n=4", "how_it_was_run": "(§1)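 MIC is defined here as the lowest concentration inhibiting growth by ≥80% relative to untreated bacteria. The assay used OD600 in CAMHB after an 18 h, 37 °C incubation at 5 × 10^5 CFU/mL. Compound was dosed in 2-fold steps with DMSO capped at 0.5–1% final.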"}, "[2]": {"tested_on": "S. aureus NRS 17 GISA", "assay": "MIC in the presence of human serum (serum reversal)", "format": "cell-based, Staphylococcus aureus", "conditions": "50% serum", "excerpt": "(§2) To obtain some initial insight into the apparent disparity between in vitro and in vivo results, we repeated the MIC experiments against four selected Gram‐positive strains in the presence of 10 % or 50 % human serum (Table S3). Pt1 and Pt2 maintained some antibacterial activity against B. subtilis in the presence of 10 % serum, but a complete loss of activity was observed against MRSA and GISA (50 % serum), and VRE (10 % serum). […] Systemic administration is therefore unlikely to be a suitable administration route for this class of compounds unless an alternative formulation that can prevent serum binding (e. g. by lipid or nanoparticle encapsulation) can be found. […] Further in vivo studies should therefore focus on more suitable disease models. […]\n(§3) Antibacterial minimum inhibitory concentration (MIC) assay\n(§4) concentration. (in-house screening)\n(§5) Bacto Laboratories 212322) at 37 °C overnight.\n(§6) The resultant mid-log phase cultures were diluted\n(§7) Gram-negative and Gram-positive bacteria, respectively.\n(§8) final concentration range of 0.8 – 100 µM.\n(§9) inhibitors as positive control. […]"}, "[3]": {"tested_on": "Galleria mellonella larvae", "assay": "In vivo toxicity in moth larvae", "conditions": "for concentration without any toxicity in G. mellonella: 10 μL injected, five larvae per concentration, survival and health index over 96 hours, highest tested; for dosage without any toxicity in G. mellonella: equates to 0.4 mM, 10 μL injection", "protocol": "Following a protocol previously reported by us we used larvae of the greater wax moth Galleria mellonella as a model organism for in vivo toxicity and efficacy.[20] […] Briefly, stock solutions of Pt1 and Pt2 were prepared in DMSO and diluted to final concentrations of 0.4 mM, 100 μM, 10 μM and 1 μM. […] For each concentration five larvae were injected with 10 μL and monitored for 96 hours for survival and health using the G. mellonella Health Index Scoring System.[22] […]\nG. mellonella larvae were reared in controlled environmental room at Macquarie University, Sydney, Australia at 26 °C and 65% humidity with a 12-hours light/dark cycle. Larvae (~200 mg) were individually injected with 10 µL of chemical into the last right proleg using a 100 μL syringe (Hamilton Ltd). The […]\nEach compound was dissolved in DMSO and diluted to final concentrations of 1 µM, 100 µM and 10 mM. We injected 5 larvae for each dilution of each compound.\nLarvae injected with different dilutions of DMSO (10-1, 10-3 and 10-5) were included as negative controls.\nFollowing injection, the larvae were incubated at 26 °C and monitored every 24 h for 4 days. Larval performance was assessed according to the G. mellonella Health Index Scoring System.[1] The experiments were repeated three separate times. […]"}, "[4]": {"tested_on": "Staphylococcus aureus NRS 17, GISA", "assay": "Antibacterial MIC assay, Gram-positive panel", "format": "cell-based", "conditions": "n=2", "how_it_was_run": "as §1"}, "[5]": {"tested_on": "E. coli lpxC (non‐efficient lipid A production mutant)", "assay": "MIC against E. coli membrane mutants", "format": "cell-based, Escherichia coli", "conditions": "Table S2", "protocol": "as §3, §4, §5, §6, §7, §8, §9"}, "[6]": {"tested_on": "E. faecium ATCC 51559 MDR, VRE", "assay": "MIC in the presence of human serum (serum reversal)", "format": "cell-based, Enterococcus faecium", "conditions": "10% serum", "excerpt": "as §2, §3, §4, §5, §6, §7, §8, §9"}, "[7]": {"tested_on": "S. aureus ATCC 43300 MRSA", "assay": "MIC in the presence of human serum (serum reversal)", "format": "cell-based, Staphylococcus aureus", "conditions": "50% serum", "excerpt": "as §2, §3, §4, §5, §6, §7, §8, §9"}, "[8]": {"tested_on": "B. subtilis ATCC 6051 type strain", "assay": "MIC in the presence of human serum (serum reversal)", "format": "cell-based, Bacillus subtilis", "conditions": "10% serum", "excerpt": "as §2, §3, §4, §5, §6, §7, §8, §9"}, "[9]": {"tested_on": "E. coli tolC (efflux pump deficient)", "assay": "MIC against E. coli membrane mutants", "format": "cell-based, Escherichia coli", "conditions": "Table S2", "protocol": "as §3, §4, §5, §6, §7, §8, §9"}},
  "note": "Marks after values point to notes of the source that are not given here.",
  "data": [
    {"smiles": "C1=C\\CC/C=C\\CC/1.[Cl-].[Cl-].[Pt+2]", "note": "[Pt1, Pt(COD)Cl2]", "values": [
      {"measurement": "MIC", "setting": "[1]; Table 2 panel", "result": "25–50^[a] μg/mL"},
      {"measurement": "MIC in the presence of human serum", "setting": "[2]", "result": "> 200", "unit": "µM"},
      {"measurement": "concentration without any toxicity in G. mellonella", "setting": "[3]", "result": "≥ 400", "unit": "µM"},
      {"measurement": "dosage without any toxicity in G. mellonella", "setting": "[3]", "result": "6 to 7.5", "unit": "mg/kg"}
    ]},
    {"smiles": "C1=CCC/C=C\\CC1.[I][Pt][I]", "note": "[Pt2, Pt(COD)I2]", "values": [
      {"measurement": "MIC", "setting": "[4]; Table 2 panel", "result": "0.78–1.56^[b] μg/mL"},
      {"measurement": "MIC", "setting": "[1]; Table 2 panel", "result": "25^[a] μg/mL"},
      {"measurement": "MIC in the presence of human serum", "setting": "[2]", "result": "> 200", "unit": "µM"},
      {"measurement": "concentration without any toxicity in G. mellonella", "setting": "[3]", "result": "≥ 400", "unit": "µM"},
      {"measurement": "dosage without any toxicity in G. mellonella", "setting": "[3]", "result": "9 to 11", "unit": "mg/kg"},
      {"measurement": "MIC E. coli lpxC", "setting": "[5]", "result": 100, "unit": "µM"}
    ]},
    {"smiles": "CCC1=CCCC=CCC1.[CH3][Pt][Cl]", "note": "[Pt7]", "values": [
      {"measurement": "MIC", "setting": "[4]; Table S1 panel", "result": 200, "unit": "µM"},
      {"measurement": "MIC", "setting": "[1]; Table S1 panel", "result": "> 200", "unit": "µM"},
      {"measurement": "MIC in the presence of human serum", "setting": "[6]", "result": "> 200", "unit": "µM"},
      {"measurement": "MIC in the presence of human serum", "setting": "[7]", "result": "> 200", "unit": "µM"},
      {"measurement": "MIC in the presence of human serum", "setting": "[2]", "result": "> 200", "unit": "µM"},
      {"measurement": "MIC in the presence of human serum", "setting": "[8]", "result": "> 200", "unit": "µM"},
      {"measurement": "MIC E. coli TolC", "setting": "[9]", "result": "> 200", "unit": "µM"},
      {"measurement": "MIC E. coli lpxC", "setting": "[5]", "result": "> 200", "unit": "µM"}
    ]}
  ]
}
